Results from a melting point compilation (Tetko et al.; mined from patent text by program, amines drawn as free bases though some values may be those of a salt).

| melting point [°C] | Compound |
| --- | --- |
| 136 to 137 | Cc1cc(OC(F)F)nc(N)n1 |
| 275 to 277 | CCn1nc2c(N)nc3ccccc3c2c1CC1(F)CCOCC1 |
| 176 to 179 | O=C(c1ccc2c(c1)[C@@H](O)[C@H](Br)CCO2)c1ccccc1C(F)(F)F (relative stereo) |
| 135 to 137 | CCCCSc1nnc(N(C)C(=O)NC)s1 |
| 246 to 252 | CC(=O)C1=CCC2C3CCC4CC(O)C(Cl)CC4(C)C3CCC12C (configuration not stated) |
| 110 | COc1ccc(CN2CCc3nc(-c4ccccc4)c4c(c3C2)CO[C@@H](C)C4)cc1 |
| 134 to 136 | CC(=O)c1c(-c2ccc(F)cc2)ncn1C1CC(C)(C)NC(C)(C)C1 |
| 110 to 113 | CC(C)NC(=O)c1nsc2ccc(-n3c(=O)cc(C(F)(F)F)n(C)c3=O)cc12 |
| 39 to 40 | Cc1nc(N2CCCC(NCc3ccc(C(F)(F)F)cc3)C2=O)sc1C(=O)NCc1ccccc1 (configuration not stated) |
| 147 to 149 | CCCOc1ccccc1-c1nc2cc3c(cc2c(=O)[nH]1)NCN3CC |
| 178 to 181 | CCOC(=O)C1=C(C)NC(C)=C(C(=O)OCC)C1c1ccccc1C=Cc1ccc(Cl)cc1 |
| 175 | CCC(CC)(CC(=O)Nc1cccc(OCc2ccc3ccc(Br)cc3n2)c1)C(=O)O |
| 73.7 | CCCc1cc(C)nc(-c2cccc(Oc3ccccc3Cl)n2)n1 |
| 41 to 43 | CC(=CCO)COc1ccc([N+](=O)[O-])cc1 |
| 206 to 210 | COc1ccc2c(c1F)C(=O)N(Nc1ccncc1)C2=O |
| 72 | Cc1c(-c2cc(C(=O)OC(C)C)c(Cl)cc2F)nn(C)c1C(F)(F)F |
| 98.3 to 99.5 | O=C(CCS)Nc1ccc(Nc2ccccc2)cc1 |
| 174 to 176 | COC(=O)C1=C(C(OC)OC)NC(C)=C(P2(=O)OCCCO2)C1c1ccccc1[N+](=O)[O-] (configuration not stated) |
| 275 to 278 | CCCC(NC(=O)Nc1ccc(Cl)cc1)P(=O)(c1ccccc1)c1ccccc1 (configuration not stated) |
| 194 to 196 | Cc1cc(C)n2nc(S(=O)(=O)Nc3c(F)cccc3F)c(Cl)c2n1 |
| 191 | O=c1nc(-c2ccc(Cl)s2)cc(C(F)(F)F)[nH]1 |
| 141 to 143 | O=C(COc1cccc(-n2nc(-c3ccc(F)cc3)c3cccnc32)c1)N1CCOCC1 |
| 245 to 246 | CN(Cc1ccc(F)cc1)C(=O)c1cnc2c3c(ccc2c1)C(=O)C(C(=O)O)C=N3 (configuration not stated) |
| 177 to 178 | CS(=O)(=O)c1ccc(-c2oc3ccc(F)cc3c(=O)c2-c2cccnc2)cc1 |

| melting point [°C] | Compound |
| --- | --- |
| 135 to 136 | COC(=O)CCC1OC(=O)C(O)=C1c1ccccc1 (configuration not stated) |
| 172 to 173 | Cn1c2cc(Cl)ccc2c(=O)c2cccn21 |
| 185 to 187 | CN1C2CCCC1CC(NC(=O)c1cccc3oc(-c4ccc(Cl)cc4)nc13)C2 (configuration not stated) |
| 73 to 77 | O=C(O)CCCOc1cccc(CN2CCCCC2)c1 |
| 170 | Cc1cc(C)cc(N(CCCC(N)=O)Cc2ccc3nc(NCCCN4CCOCC4)n(Cc4ncccc4O)c3c2)c1 |
| 145 to 146 | CCCc1c(OCCCCCCc2ccc(O)c(O)c2Cl)ccc(C(=O)O)c1O |
| 261 to 263 | Cc1cc(C)nc(S(=O)(=O)Nc2c(Cl)cccc2Cl)n1 |
| 131 to 132 | COC(=O)C(OC)c1ccc2nc(-c3ccc(Cl)cc3)oc2c1 (configuration not stated) |
| 225 to 227 | O=C(O)[C@H]1C[C@@H](C(=O)O)c2c(Cl)cc(Cl)cc2N1 (relative stereo) |
| 200 to 202 | CS(=O)(=O)c1ccc(-c2nn3c(-c4ccc(F)cc4)coc3c2-c2ccc(F)cc2)cc1 |
| 135 to 140 | CCCCC/C=C\C/C=C\CCCCCCCC(=O)Nc1cccc(N(CC(=O)O)CC(=O)O)c1 |
| 230 to 232 | O=C(O)Cc1cccc2c(-c3ccc(Br)cc3)nccc12 |
| 94 to 95 | CC1(C)CCCc2cc3c(cc21)C(C)(C)CCC3(C)C |
| 115 to 116 | COC(=O)CCc1nc(-c2ccc(O)cc2)c(-c2ccccc2)o1 |
| 52 to 54 | COc1ccc2c(c1)CCC(=C(O)C(F)F)C2=O |
| 208 to 209 | COc1ccnc(CCc2nc3cc(-c4ccc(S(=O)(=O)N5CCN(c6ccc(C)cc6C)CC5)cc4)cnc3[nH]2)c1 |
| 98 | Cc1c(Cl)cc(C(C)C)c(-c2c(C(C)C)cc(Cl)c(C)c2O)c1O |
| 220 to 221 | O=c1c2c(n(-c3ccccc3)c3ccccc13)OCC2 |
| 258 to 260 | Cc1ccc(NC(=O)c2c(Cl)cccc2Cl)c2nccc(Cl)c12 |
| 251 to 252 | Cc1nc2c(O)cccn2c1C=O |
| 160 to 180 | C[C@@H]([C@H]1CO1)[C@](O)(Cn1cncn1)c1ccc(F)cc1F (relative stereo) |
| 107 to 108 | CCOc1c(OC)cc(C(=O)OC)c(-c2c(C(=O)OC)cc(OC)c3c2OCO3)c1OCC |
| 167 | N#Cc1cc(Oc2ccc3c(C(=O)Nc4cccc(C(F)(F)F)c4)cccc3c2)ncn1 |
| 147 to 149 | CC(=O)NC(=O)CSC(c1ccccc1)(c1ccccc1)c1ccccc1 |

| melting point [°C] | Compound |
| --- | --- |
| 84 to 86 | CCCNC(=O)N(C)C1CCNCC1 |
| 108 | CCOc1ccc(C(=O)C=Cc2ccc(SC)cc2)cc1 |
| 146 | Cc1nc(N)sc1S(=O)(=O)NC(C)(C)CO |
| 124 | COc1ccc(C2CCN(C(=O)C(=O)NO)CC2)cc1OC1CCCC1 |
| 116 to 117 | C=CC(=O)NC(C)(C)c1ccc(OCc2ccccc2)cc1 |
| 90 to 91 | C1=Cc2ccccc2C2(CO2)c2ccccc21 |
| 141 to 143 | CC(=O)Oc1ccc(Oc2cccc(C(=O)O)c2)cc1 |
| 180 to 182 | CCNc1ncc2cc(-c3c(Cl)cccc3Cl)c(=O)n(C)c2n1 |
| 213 to 214 | Cc1cc(C)cc(Cc2[nH]c(=O)[nH]c(=O)c2C(C)C)c1 |
| 162 to 165 | Cc1nc(C)c(Cl)c(NCc2nccc(CNCCO)c2Cl)n1 |
| 148 to 150 | Clc1ccc(CN2CC3(COc4cc5c(cc43)OCO5)c3ccccc32)o1 (configuration not stated) |
| 181 to 183 | CN(C)C(=O)Cn1c(-c2ccc(C(F)(F)F)cc2)nc2cccnc21 |
| 172 to 174 | Fc1ccc(Nc2ccnc(Cl)n2)cc1 |
| 99 to 101 | CC(C)N1C(=O)c2ccccc2N(C#N)S1(=O)=O |
| 226 to 228 | CCC(CC)Nc1nc(-c2cc(OC)c(OC)c(OC)c2)nc2sc(C#N)c(C)c12 |
| 72 to 74 | COCC1CN(c2ccc(C3CCC(OCCCCC(N)=O)CC3)cc2)C(=O)O1 (racemic) |
| 91 to 93 | CN(C)C=NC(=O)C=Cc1ccccc1 |
| 216 to 218 | CC(=O)Oc1cc2oc(=O)cc(CSc3ccccc3C(=O)O)c2cc1OC(C)=O |
| 106 to 108 | CCCc1c(OCCCCCCc2cc(OC)c(OC)c(C(C)C)c2)ccc(C(=O)O)c1O |
| 231 to 232 | Cc1ccc(S(=O)(=O)NCCCn2c(CCO)nc3c(N)nc4ccccc4c32)cc1 |
| 123 to 124 | C=C(C)c1ccc(CNC(=O)N2CCN(c3ncnc4cc(OC)c(OC)cc34)CC2)cc1 |
| 165 | COC(=O)NNC(=O)C=Cc1ccccc1 |
| 208 to 209 | CC(C)CCOc1ccc2sc(C(=O)O)cc(=O)c2c1 |
| 195 to 199 | CCCCNC(=O)C(C)(C)COc1cccc2nc(C)c(C(=O)O)c(N)c12 |

| melting point [°C] | Compound |
| --- | --- |
| 71 to 72 | O=C(O)CCCCCCCCCCCCCCCI |
| 159 to 161 | Cc1cccc(C)c1N(CCCC(=O)N[C@@H](C)C(=O)O)C(=O)c1ccc(Cl)cc1 |
| 142 to 144 | CCCc1c(OCCCOc2ccc(C(=O)CCC(=O)O)cc2F)ccc(C(C)=O)c1O |
| 218 to 220 | CC(=O)NC1=CC(C)(C)Oc2cc3nonc3cc21 |
| 213 | CC1(C)CC(=O)NC2=C1c1ccc(Cl)cc1CC2 |
| 88 to 90 | CC1c2cccc3c2N(CC3)c2ccccc2N1C(=O)CCCCl (configuration not stated) |
| 94 to 95 | CC(C)(C)OC(=O)NCc1ccccc1N |
| 173 to 176 | CCOC(=O)Oc1ccc(/C=C/C(=O)O)cc1 |
| 228 to 229 | Cc1ccc(C(=O)Nc2c(NC(=O)CN3CCN(c4ccccc4F)CC3)ccc3c2C(=O)c2ccccc2C3=O)cc1 |
| 102 to 104 | COc1cccc(-n2[nH]c(Cc3c(C)n(C(=O)c4ccc(Cl)cc4)c4ccc(OC)cc34)cc2=O)c1 |
| 95.9 to 96.7 | CCCCCS(=O)(=O)NC(=O)CCc1ccc(OCCOC)cc1OCc1nc(-c2ccccc2)oc1C |
| 171 to 175 | O=C(O)c1ccc(NC(=O)c2ccc(Cl)cc2Cl)cc1Cl |
| 209 to 212 | O=Cc1ccc2c3c1ccc1cccc(c13)C2 |
| 99 to 101 | O=c1ccn(C2CCCO2)c(=O)[nH]1 (configuration not stated) |
| 55 to 57 | O=c1ccc2ccc(OCCCCN3CCCN(c4cccc(Cl)c4Cl)CC3)cc2[nH]1 |
| 212 to 213 | Cc1nccc(N2CCN(C(=O)N3CCN(C(=O)OC(C)(C)C)CC3)CC2)n1 |
| 202 | CC(C)(C)OC(=O)NC1CCN(CCn2c(=O)ccc3ccc(C#N)cc32)CC1 |
| 209 to 210 | O=Cc1nn(-c2ccc([N+](=O)[O-])cc2)c2c1CCC2 |
| 122 to 123 | CCSc1cc(C)nc(SCC)c1NC(=O)CCCSc1nc2c(C)c(Cl)cc(C(C)C)c2o1 |
| 123 | CCOC(=O)c1ccccc1NCc1c(-c2ccccc2)nn(C)c1Cl |
| 127 | NC(=O)CCSSSSCCC(N)=O |
| 115 to 116 | COCOc1ccc(OC(C)C(=O)Nc2ccc(OC(F)(F)F)cc2)cc1 (configuration not stated) |

| Compound | melting point [°C] |
| --- | --- |
| Cc1nn(-c2ccc(C#N)c(Cl)c2)c(C)c1Cc1ccc(C(=O)N2CC(O)C2)cc1 | 115 to 117 |
| O=c1ccc2c([nH]1)CCN(Cc1ccccc1)C2 | 210 to 212 |
| CNC(=O)Oc1c(C)cc(C)c2c1CC(C)C2(C)C (configuration not stated) | 130 to 131 |
| CCOC(=O)[C@H](CCSC)NC(=O)C1(Br)SC=C(Br)C1Br (some centres not stated) | 80 to 82 |
| CCCC(N)CC(=O)O (configuration not stated) | 203 |
| CC(C)CCCC(C)C1CCC2C3CC=C4CC(OC(=O)NCC(=O)N(CCCl)CCCl)CCC4(C)C3CCC12C (configuration not stated) | 98 to 100 |
| Cc1c(Cc2c[nH]cn2)ccc(O)c1C(N)=O | 263 |
| COC(=O)c1nc(Cl)n2c1CN=C(c1ccccc1Cl)c1cc(Cl)ccc1-2 | 200 to 202 |
